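Cultured in 96-well plates, cells were exposed to test compound for 48 hours across five concentrations. The concentration for 50% growth inhibition is given as GI50. TGI is the concentration that stops growth completely.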
Legend:
Assay in all cases: NCI-60 cell line screen, 48 h
A498 renal = tested on: A498 renal
786-0 renal = tested on: 786-0 renal
KM12 colon = tested on: KM12 colon
NCI-H460 lung = tested on: NCI-H460 lung
K-562 leukemia = tested on: K-562 leukemia
UO-31 renal = tested on: UO-31 renal
OVCAR-5 ovarian = tested on: OVCAR-5 ovarian
RPMI-8226 leukemia = tested on: RPMI-8226 leukemia
LOX IMVI melanoma = tested on: LOX IMVI melanoma
CCRF-CEM leukemia = tested on: CCRF-CEM leukemia

SMILES	TGI (A498 renal) [µM]	TGI (786-0 renal) [µM]	TGI (KM12 colon) [µM]	TGI (NCI-H460 lung) [µM]	TGI (K-562 leukemia) [µM]	TGI (UO-31 renal) [µM]	TGI (OVCAR-5 ovarian) [µM]	GI50 (RPMI-8226 leukemia) [µM]	TGI (RPMI-8226 leukemia) [µM]	GI50 (LOX IMVI melanoma) [µM]	TGI (LOX IMVI melanoma) [µM]	GI50 (786-0 renal) [µM]	GI50 (KM12 colon) [µM]	GI50 (NCI-H460 lung) [µM]	GI50 (K-562 leukemia) [µM]	GI50 (UO-31 renal) [µM]	TGI (CCRF-CEM leukemia) [µM]	GI50 (CCRF-CEM leukemia) [µM]	GI50 (OVCAR-5 ovarian) [µM]	GI50 (A498 renal) [µM]
CC(C)OCN1COCN=C1NC#N	> 100	> 100	> 100	> 100	> 100	> 100	> 100	–	–	–	–	–	–	–	–	–	–	–	–	–
COc1ccc2cc(C(=O)/C=C/c3ccc(OC)c(OC)c3)ccc2c1	–	35.4	32.1	> 100	94.9	49.3	–	4.09	20.3	3.38	> 100	18.8	4.82	7.38	5	23.3	–	–	–	–
CSC(=S)NN=C1CCCCC1	> 100	> 100	> 100	> 100	83.2	> 100	–	–	0.647	–	53.1	–	–	–	–	–	87.8	–	–	–
c1ccc(-c2cc(-c3cc(-c4ccccn4)[nH]n3)n[nH]2)nc1	> 100	> 100	> 100	> 100	> 100	73.2	> 100	–	> 100	–	> 100	–	–	–	–	–	–	–	–	–
CN(C)CCCC1(c2ccc(F)cc2)OCc2cc(-c3ccc4cc[nH]c4c3)ccc21 (stereo not drawn)	–	3.41	3.42	3.49	4.08	2.82	4.3	2.5	6.04	1.78	3.27	1.78	1.85	1.79	1.93	1.45	7.12	2.65	1.95	–
Cc1cccc(NC(=O)CC2C(=O)Nc3ccccc3S2(=O)=O)c1C (stereo not drawn)	> 100	76.1	> 100	82.4	> 100	50.5	> 100	–	–	–	–	–	–	–	–	–	–	–	–	–
Cc1ccccc1NC(=O)C(=O)Cc1nc2ccccc2s1	> 100	> 100	> 100	> 100	> 100	> 100	> 100	–	–	–	> 100	–	–	–	–	–	> 100	–	–	–
CC1CC2C3CC(F)C4=CC(=O)C=CC4(C)C3(F)C(O)CC2(C)C1(O)C(=O)CO (stereo not drawn)	–	> 100	> 100	> 100	> 100	> 100	–	–	> 100	–	> 100	–	–	–	–	–	> 100	–	–	–
COc1cc2cc(C(=O)O)[nH]c2cc1OCc1ccccc1	–	> 100	> 100	> 100	> 100	> 100	> 100	> 100	> 100	> 100	> 100	> 100	> 100	> 100	> 100	> 100	> 100	> 100	> 100	–
CCCCCN(CCCCC)C(=O)[C@@H](CCC(=O)OCc1ccccc1)NC(=O)c1cc2ccccc2[nH]1	> 100	> 100	> 100	> 100	> 100	> 100	> 100	–	–	–	> 100	–	–	–	–	–	> 100	–	–	–
O=C1C(Nc2ccccn2)=C(I)C(=O)c2ncccc21	2.74	4.68	3.42	1.1	4.29	–	3.25	1.19	3.73	0.305	1.66	1.9	1.65	0.295	0.367	–	5.19	0.552	1.71	1.26
CC(NC1CCC[C@H]1O)c1ccccc1 (mixture of isomers)	> 100	> 100	> 100	> 100	> 100	> 100	–	–	> 100	–	> 100	–	–	–	–	–	> 100	–	–	–
Clc1ccc2c(NCCCN3CCN(c4nc(-n5ccnc5)nc5ccccc45)CC3)ccnc2c1	> 26.8	3.21	–	–	6.13	–	> 100	2.21	5.19	1.84	3.69	1.66	–	–	2.1	2.49	> 100	2.87	> 100	2.55
Oc1cccc(C2SCc3nc4ccccc4n32)c1 (stereo not drawn)	> 100	> 100	> 100	> 100	> 100	> 100	> 100	–	> 100	–	–	–	–	–	–	–	> 100	–	–	–
Nc1nc(N)c(-c2ccccc2)c(C(=O)Nc2ccc(Cl)c(Cl)c2)n1	> 100	> 100	> 100	> 100	> 100	> 100	> 100	–	> 100	–	> 100	–	–	–	–	–	–	–	–	–
C=CC1=C(C)C2=NC1=CC1=NC(=C(CC)/C1=C/O)C=C1C=C3C(=O)C(C(=O)OC)C(=C4NC(=C2)C(C)C4CCC(=O)OC/C=C(\C)CCCC(C)CCCC(C)CCCC(C)C)C3=N1 (stereo not drawn) (tested in a mixture with another compound)	> 100	> 100	> 100	> 100	> 100	> 100	> 100	–	> 100	–	> 100	–	–	–	–	–	–	–	–	–
C=C(C)C1CC[C@]2(C(=O)O)CCC3(C)[C@H](CCC4[C@@]5(C)CC[C@H](OC6OC(CO)C(O)C6OC6OC(C)C(O)C(O)C6O)[C@@](C)(CO)C5CC[C@]43C)C12 (stereo partly drawn)	–	> 100	> 100	> 100	> 100	> 100	> 100	–	–	–	> 100	–	–	–	–	–	> 100	–	–	–
COc1cc(C2C(C(=O)O)=C(C)Oc3cc4c(cc32)OCO4)cc(OC)c1OC (stereo not drawn)	–	> 100	–	> 100	> 100	> 100	–	–	–	–	> 100	–	–	–	–	–	> 100	–	–	–
O=C1/C(=C\c2ccccc2)c2ccccc2N1Cc1ccccc1	–	23	13.9	19	> 31.3	15.8	15.2	–	9.28	–	17	–	–	–	–	–	12.6	–	–	–
O=C1OC(=O)C2C3CCC(O3)C12 (stereo not drawn)	> 100	> 100	> 100	> 100	> 100	> 100	> 100	–	> 100	–	–	–	–	–	–	–	> 100	–	–	–
COc1ccc(/C=N/NC(=O)O)cc1	> 100	> 100	> 100	> 100	> 100	> 100	> 100	–	> 100	–	> 100	–	–	–	–	–	–	–	–	–
